This note sets out measurements from patent publication US7265103B2, “Substituted amino isoxazoline derivatives and their use as anti-depressants” (Janssen Pharmaceutica NV., priority 2002, dated 2007).

In assay [1] the target is T1, hα2A receptor (Homo sapiens, UniProt P08913).
T1 construct: expressed in transfected cells; host or cells: CHO cells
T1 sequence (P08913 1-465): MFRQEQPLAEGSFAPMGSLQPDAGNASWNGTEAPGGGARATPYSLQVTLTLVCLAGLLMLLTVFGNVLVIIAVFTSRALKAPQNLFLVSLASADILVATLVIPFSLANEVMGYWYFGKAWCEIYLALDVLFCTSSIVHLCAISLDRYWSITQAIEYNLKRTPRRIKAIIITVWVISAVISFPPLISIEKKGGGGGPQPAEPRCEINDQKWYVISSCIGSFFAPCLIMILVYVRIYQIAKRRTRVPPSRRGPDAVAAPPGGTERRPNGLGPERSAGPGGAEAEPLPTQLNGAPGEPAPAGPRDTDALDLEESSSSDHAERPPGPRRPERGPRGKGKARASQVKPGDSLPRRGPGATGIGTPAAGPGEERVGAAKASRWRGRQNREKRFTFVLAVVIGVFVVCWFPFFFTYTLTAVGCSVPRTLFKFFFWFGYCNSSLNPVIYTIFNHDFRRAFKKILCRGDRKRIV
Put plainly: Radioligand binding experiment for α2A-adrenergic receptor ([3H]-raulwolscine). The settings on record: CHO cell membranes with human α2A receptor, [3H]raulwolscine 1 nM; read-out: pIC50 α2A (converted). As for the experimental part: (§1) The interaction of the compounds of Formula (I) with hα2-receptors and h5-HT-transporters was assessed in in vitro radioligand binding experiments. In general, a low concentration of a radioligand with a high binding affinity for a particular receptor or transporter is incubated with a sample of a tissue preparation enriched in a particular receptor or transporter or with a preparation of cells expressing cloned human receptors in a buffered medium. During the incubation, the radioligand binds to the receptor or transporter. When equilibrium of binding is reached, the receptor bound radioactivity is separated from the non-bound radioactivity, and the receptor- or transporter-bound activity is counted. The interaction of the test compounds with the receptor is assessed in competition binding experiments. Various concentrations of the test compound are added to the incubation mixture containing the receptor- or transporter preparation and the radioligand. The test compound in proportion to its binding affinity and its concentration inhibits binding of the radioligand. The radioligand used for hα2A, hα2B and hα2C receptor binding was [^3H]-raulwolscine and for the h5-HT transporter was [^3H]paroxetine.
(§2) CHO cells, stabile transfected with human adrenergic-α2A-, -α2B or α2C receptor cDNA, were cultured in Dulbecco's Modified Eagle's Medium (DMEM)/Nutrient mixture Ham's F12 (ratio 1:1)(Gibco, Gent-Belgium) supplemented with 10% heat inactivated fetal calf serum (Life Technologies, Merelbeke-Belgium) and antibiotics (100 IU/ml penicillin G, 100 μg/ml streptomycin sulphate, 110 μg/ml pyruvic acid and 100 μg/ml L-glutamine). One day before collection, cells were induced with 5 mM sodiumbutyrate. Upon 80-90% of confluence, cells were scraped in phosphate buffered saline without Ca^2+ and Mg^2+ and collected by centrifugation at 1500×g for 10 min. The cells were homogenised in Tris-HCl 50 mM using an Ultraturrax homogenizer and centrifuged for 10 min at 23,500×g. The pellet was washed once by resuspension and rehomogenization and the final pellet was resuspended in Tris-HCl, divided in 1 ml aliquots and stored at −70° C.
(§3) Membranes were thawed and re-homogenized in incubation buffer (glycylglycine 25 mM, pH 8.0). In a total volume of 500 μl, 2-10 μg protein was incubated with [^3H]raulwolscine (NET-722) (New England Nuclear, USA) (1 nM final concentration) with or without competitor for 60 min at 25° C. followed by rapid filtration over GF/B filter using a Filtermatel 96 harvester (Packard, Meriden, Conn.). Filters were rinsed extensively with ice-cold rinsing buffer (Tris-HCl 50 mM pH 7.4). Filter-bound radioactivity was determined by scintillation counting in a Topcount (Packard, Meriden, Conn.) and results were expressed as counts per minute (cpm). Non-specific binding was determined in the presence of 1 μM oxymetazoline for hα2A- and hα2B receptors and 1 μM spiroxatrine for hα2C receptors.
(§4) Data from assays in the presence of compound were calculated as a percentage of total binding measured in the absence of test compound. Inhibition curves, plotting percent of total binding versus the log value of the concentration of the test compound, were automatically generated, and sigmoidal inhibition curves were fitted using non-linear regression. The pIC50 values of test compounds were derived from individual curves.

Assay [2] concerns the target T2, h5-HT transporter (Homo sapiens, UniProt P31645).
T2 construct: Human platelet membranes (Oceanix Biosciences Corporation, Hanover, Md., USA) were thawed; tissue Oceanix Biosciences Corporation; host or cells: human platelet membranes
The assay can be described thus: Radioligand binding experiment for 5-HT transporter ([3H]paroxetine). The settings on record: human platelet membranes, [3H]paroxetine 0.5 nM. As for the experimental part:
as §1
Human platelet membranes (Oceanix Biosciences Corporation, Hanover, Md., USA) were thawed, diluted in buffer (Tris-HCl 50 mM, 120 mM NaCl and 5 mM KCl) and quickly (max 3 s) homogenised with an Ultraturrax homogenizer. In a total volume of 250 μL, 50-100 μg protein was incubated with [^3H]paroxetine (NET-869) (New England Nuclear, USA) (0.5 nM final concentration) with or without competitor for 60 min at 25° C. Incubation was stopped by rapid filtration of the incubation mixture over GF/B filters, pre-wetted with 0.1% polyethyleneamine, using a Filtermatel 96 harvester (Packard, Meriden, Conn.). Filters were rinsed extensively with ice-cold buffer and radioactivity on the filters was counted in a Topcount liquid scintillation counter (Packard, Meriden, Conn.). Data were expressed as cpm. Imipramine (at 1 μM final concentration) was used to determine the non-specific binding.
as §4

Assay [3] deals with T3, hα2C receptor (Homo sapiens, UniProt P18825).
T3 construct: expressed in transfected cells; host or cells: CHO cells
T3 sequence (P18825 1-462): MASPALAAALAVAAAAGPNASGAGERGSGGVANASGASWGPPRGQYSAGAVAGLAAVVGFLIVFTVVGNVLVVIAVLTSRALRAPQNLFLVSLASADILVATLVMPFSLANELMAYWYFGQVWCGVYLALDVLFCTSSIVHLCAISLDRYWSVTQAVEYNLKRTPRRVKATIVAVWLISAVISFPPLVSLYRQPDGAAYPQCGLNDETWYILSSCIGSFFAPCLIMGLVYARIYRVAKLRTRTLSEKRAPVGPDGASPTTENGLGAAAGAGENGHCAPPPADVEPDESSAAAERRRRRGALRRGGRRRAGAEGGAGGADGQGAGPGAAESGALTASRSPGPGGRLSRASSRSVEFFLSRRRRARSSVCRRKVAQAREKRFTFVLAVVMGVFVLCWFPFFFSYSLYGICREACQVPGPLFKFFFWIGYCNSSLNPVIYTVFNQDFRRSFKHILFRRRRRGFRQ
The assay can be described thus: Radioligand binding experiment for α2C-adrenergic receptor ([3H]-raulwolscine). The settings on record: CHO cell membranes with human α2C receptor, [3H]raulwolscine 1 nM; read-out: pIC50 α2C (converted). The procedure: as §1, §2, §3, §4

T2 sequence (P31645 whole entry): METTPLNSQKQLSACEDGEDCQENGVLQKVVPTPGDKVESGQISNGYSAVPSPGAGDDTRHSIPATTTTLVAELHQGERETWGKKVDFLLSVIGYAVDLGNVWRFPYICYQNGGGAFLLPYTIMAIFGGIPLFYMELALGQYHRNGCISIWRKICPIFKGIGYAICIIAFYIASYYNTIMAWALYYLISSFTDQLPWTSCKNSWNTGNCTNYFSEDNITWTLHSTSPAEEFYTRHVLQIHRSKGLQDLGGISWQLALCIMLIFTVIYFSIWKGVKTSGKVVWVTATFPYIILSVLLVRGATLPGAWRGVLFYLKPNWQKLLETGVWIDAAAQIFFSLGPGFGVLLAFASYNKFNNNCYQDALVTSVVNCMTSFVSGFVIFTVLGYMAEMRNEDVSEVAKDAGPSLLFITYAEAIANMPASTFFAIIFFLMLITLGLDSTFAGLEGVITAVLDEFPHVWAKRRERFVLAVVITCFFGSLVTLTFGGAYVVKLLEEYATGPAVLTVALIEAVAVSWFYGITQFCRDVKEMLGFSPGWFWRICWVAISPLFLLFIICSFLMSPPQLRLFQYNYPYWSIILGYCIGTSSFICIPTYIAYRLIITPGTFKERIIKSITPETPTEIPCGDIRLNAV

For the compound `CCNC(=O)N1CCOc2cc3c(cc21)OCC1C3=NOC1CN1CCN(C/C(C)=C/c2ccccc2)CC1` (stereo not drawn) [Compound 16], the IC50 is 7.94 nM in assay [1], 7.94 nM in assay [2] and 0.794 nM in assay [3].
Regarding `COc1cc2c(cc1NCC1CC1C)OCC1C2=NOC1CN1CCN(CC(C)=Cc2ccc(F)cc2)CC1` (stereo not drawn) [Compound 126], the figures for the IC50 in assay [1], in assay [2] and in assay [3] were 63.1 nM, 126 nM and 126 nM, respectively.
In the case of `CC(=Cc1ccc(F)cc1)CN1CCN(CC2ON=C3c4ccc(NCC5CC5)cc4OCC32)CC1` (stereo not drawn) [Compound 130], the IC50 in assay [1] was 126 nM; in assay [2], 126 nM; in assay [3], 25.1 nM.
Regarding `CCC(C)(C)NCCN(C)c1ccc2c(c1)OCC1C2=NOC1CN1CCN(CC(C)=Cc2ccc(F)cc2)CC1` (stereo not drawn) [Compound 120], the IC50 in assay [1] is 39.8 nM; in assay [2] it was 2.51 nM; in assay [3], 6.31 nM.
`C/C(=C\c1ccccc1)CN1CCN(CC2ON=C3c4cc5c(cc4OCC32)N(C)CCO5)CC1` (stereo not drawn) [Compound 14]: the IC50 in assay [1] is 15.8 nM; in assay [2] it was 31.6 nM; in assay [3] it was 5.01 nM.
On to `CC(=Cc1ccc(F)cc1)CN1CCN(CC2ON=C3c4ccc(N(C)CCN(C)C(C)(C)C)cc4OCC32)CC1` (stereo not drawn) [Compound 122], for which the IC50 in assay [1] was 39.8 nM; in assay [2], 6.31 nM; in assay [3] it was 7.94 nM.
As for `COc1cc2c(cc1NC(=O)C1CC1)OCC1C2=NOC1CN1CCN(CC(C)=Cc2ccccc2)CC1` (stereo not drawn) [Compound 52], the IC50 is 3.98 nM in assay [1], 20 nM in assay [2] and 0.631 nM in assay [3].
`COc1cc2c(cc1NCC1(C)CC1)OCC1C2=NOC1CN1CCN(CC(C)=Cc2ccc(F)cc2)CC1` (stereo not drawn) [Compound 128]: the results for the IC50 in assay [1], in assay [2] and in assay [3] were 200 nM, 158 nM and 200 nM, respectively.
Consider `CC(=Cc1ccc(F)cc1)CN1CCN(CC2ON=C3c4ccc(N5CCCCCC5)cc4OCC32)CC1` (stereo not drawn) [Compound 125], for which the IC50 in assay [1] is 200 nM; in assay [2], 158 nM; in assay [3], 158 nM.
Turning to `CNc1ccc2c(c1)OCC1C2=NOC1CN1CCN(CC(C)=Cc2ccccc2)CC1` (stereo not drawn) [Compound 87], the values for the IC50 in assay [1], in assay [2] and in assay [3] were 2.51 nM, 50.1 nM and 3.16 nM, respectively.
Consider `CC(=Cc1ccc(F)cc1)CN1CCN(CC2ON=C3c4ccc(NCC(C)O)cc4OCC32)CC1` (stereo not drawn) [Compound 132], for which the IC50 in assay [1] was 25.1 nM; in assay [2], 63.1 nM; in assay [3], 31.6 nM.
In the case of `COc1cc2c(cc1NCCN1CCCC1)OCC1C2=NOC1CN1CCN(CC(C)=Cc2ccc(F)cc2)CC1` (stereo not drawn) [Compound 29], the IC50 is 15.8 nM in assay [1], 3.16 nM in assay [2] and 1.58 nM in assay [3].
`C=CC(=O)Nc1cc2c(cc1OC)C1=NOC(CN3CCN(CC(C)=Cc4ccc(F)cc4)CC3)C1CO2` (stereo not drawn) [Compound 106]: the IC50 was 6.31 nM in assay [1], 31.6 nM in assay [2] and 12.6 nM in assay [3].
The matching figures for `CC(=Cc1ccccc1)CN1CCN(CC2ON=C3c4ccc(N(C)CCO)cc4OCC32)CC1` (single isomer, unassigned) [Compound 33]: 631 nM, 12.6 nM and 39.8 nM.
With `CC(=Cc1ccccc1)CN1CCN(CC2ON=C3c4ccc(N(C)Cc5ccccc5)cc4OCC32)CC1` (stereo not drawn) [Compound 47], the IC50 in assay [1] is 2.51 nM; in assay [2] it was 50.1 nM; in assay [3], 3.16 nM.
The matching figures for `CCNc1cc2c(cc1OC)C1=NOC(CN3CCN(CC(C)=Cc4ccc(F)cc4)CC3)C1CO2` (stereo not drawn) [Compound 105]: 50.1 nM, 20 nM and 31.6 nM.
For `CCNC(=O)Nc1ccc2c(c1)OCC1C2=NOC1CN1CCN(CC(C)=Cc2ccccc2)CC1` (stereo not drawn) [Compound 59], the IC50 in assay [1] is 7.94 nM; in assay [2], 10 nM; in assay [3], 1.26 nM.
For the compound `CC(=Cc1ccc(F)cc1)CN1CCN(CC2ON=C3c4ccc(N5CCc6ccccc6C5)cc4OCC32)CC1` (stereo not drawn) [Compound 73], the IC50 in assay [1] is 50.1 nM; in assay [2], 63.1 nM; in assay [3], 5.01 nM.
Take `CNc1cc2c(cc1OC)C1=NOC(CN3CCN(CC(C)=Cc4ccccc4)CC3)C1CO2` (stereo not drawn) [Compound 88]: the IC50 was 5.01 nM in assay [1], 20 nM in assay [2] and 1.26 nM in assay [3].
On to `COc1cc2c(cc1NC(C)=O)OCC1C2=NOC1CN1CCN(C/C(C)=C/c2ccccc2)CC1` (stereo not drawn) [Compound 10], for which the IC50 was 3.98 nM in assay [1], 63.1 nM in assay [2] and 1.26 nM in assay [3].
Regarding `COc1cc2c(cc1N1CCC1)OCC1C2=NOC1CN1CCN(CC(C)=Cc2ccc(F)cc2)CC1` (stereo not drawn) [Compound 102], the IC50 was 20 nM in assay [1], 50.1 nM in assay [2] and 15.8 nM in assay [3].
`CC(=Cc1ccc(F)cc1)CN1CCN(CC2ON=C3c4ccc(N(C)CCN)cc4OCC32)CC1` (stereo not drawn) [Compound 19]: the IC50 is 12.6 nM in assay [1], 10 nM in assay [2] and 2.51 nM in assay [3].
`CC(=Cc1ccc(F)cc1)CN1CCN(CC2ON=C3c4ccc(N(C)CCOC(=O)C5CC5)cc4OCC32)CC1` (stereo not drawn) [Compound 109]: the results for the IC50 in assay [1], in assay [2] and in assay [3] were 158 nM, 39.8 nM and 31.6 nM, respectively.
The corresponding values for `COc1cc2c(cc1N1CCC(C)CC1)OCC1C2=NOC1CN1CCN(CC(C)=Cc2ccc(F)cc2)CC1` (stereo not drawn) [Compound 103] are 79.4 nM, 126 nM and 63.1 nM.
Regarding `COc1cc2c(cc1N1CCCC1C)OCC1C2=NOC1CN1CCN(CC(C)=Cc2ccc(F)cc2)CC1` (stereo not drawn) [Compound 101], the IC50 is 39.8 nM in assay [1], 158 nM in assay [2] and 31.6 nM in assay [3].
